Experimental data taken from patent US20110178104A1, “Anti-Heparin Compounds” (POLYMEDIX INC., priority 2010, published 2011).

Legend:
[1] = system: unfractionated heparin (UFH); assay: aPTT clotting assay, UFH 0.2 U/mL in plasma (Example 7); format: biochemical; settings: UFH 0.2 U/mL in plasma
Procedure: aPTT clotting Assay. Unfractionated heparin was mixed with plasma at a final concentration of 0.2 U/mL. […] The ACL Elite Hemostasis analyzer (Beckman Coulter™) was used to add aPTT reagent (HemosIL SynthASil) to supplemented plasma. Clotting was initiated by addition of CaCl2 and time to clot was recorded.

enoxaparin (ENOX) = assay: FXa chromogenic assay (absence of plasma), enoxaparin; settings: enoxaparin 0.1 μg/mL, absence of plasma
Procedure: Human antithrombin was mixed with an anticoagulant agent (a LMWH or fondaparinux); final concentrations were 0.22 μg/mL for the LMWHs and 0.07 μg/mL for fondaparinux. […] Absorbance was read every 30 seconds over a 4 minute period in a SpectraMax 250 instrument (Molecular Devices, Inc.). EC50 values are determined by a curve-fit program (SoftMax Pro) using the following formula:
FXa Chromogenic Assay (absence of plasma). Human antithrombin was mixed with an anticoagulant (a LMWH or fondaparinux); final concentrations were 0.1 μg/mL for the LMWHs and 0.02 μg/mL for fondaparinux. […] Absorbance was read every 30 seconds over a 4 minute period in a SpectraMax 250 instrument (Molecular Devices Inc.™) The slope of absorbance vs time was calculated for each compound concentration. EC50 values were determined using a curve fit program (GraphPad Prism 5).

fondaparinux (FONDAPX) = assay: FXa chromogenic assay (absence of plasma), fondaparinux; settings: fondaparinux 0.02 μg/mL, absence of plasma

Compound	UFH (aPTT) EC50 [1]	ENOX (FXa) EC50 (enoxaparin (ENOX))	FONDAPX (FXa) EC50 (fondaparinux (FONDAPX))
COc1cc(OC)c(C(=O)Nc2cc(C(F)(F)F)cc(NC(=O)CCCCNC(=N)N)c2SCCN)cc1C(=O)Nc1cc(C(F)(F)F)cc(NC(=O)CCCCNC(=N)N)c1SCCN [Compound 1]	inactive	0.18 µg/mL	inactive
COc1cc(OC)c(C(=O)N[C@H]2CC[C@H](NC(=O)c3cc(C(=O)NCCN(C)C)c(OCCCCCN)cc3OCCCCCN)CC2)cc1C(=O)NC1CCC(NC(=O)c2cc(C(=O)NCCN(C)C)c(OCCCCCN)cc2OCCCCCN)CC1 (stereo partly drawn) [Compound 2]	6.25 µg/mL	2.26 µg/mL	inactive
COc1cc(OC)c(C(=O)N[C@H]2CC[C@H](NC(=O)c3cc(C(=O)NCCN(C)C)c(OCCCCCNC(=N)N)cc3OCCCCCNC(=N)N)CC2)cc1C(=O)NC1CCC(NC(=O)c2cc(C(=O)NCCN(C)C)c(OCCCCCNC(=N)N)cc2OCCCCCNC(=N)N)CC1 (stereo partly drawn) [Compound 3]	1.76 µg/mL	0.25 µg/mL	1.34 µg/mL
CN(C)CCNC(=O)c1cc(C(=O)NCCN(C)C)c(OCCCCCN)cc1OCCCCCN [Compound 4]	inactive	47.94 µg/mL	84.66 µg/mL
COc1ccc(NC(=O)[C@@H](CCCNC(=N)N)NC(=O)c2cc(NC(=O)[C@@H](CCCNC(=N)N)NC(=O)c3cc(NC(=O)[C@@H](CCCNC(=N)N)NC(=O)c4cc(NC(=O)[C@H](N)CCCNC(=N)N)ccc4F)ccc3F)ccc2OC)cc1C(N)=O [Compound 25]	–	0.97 µg/mL	10.36 µg/mL
COc1ccc(NC(=O)C(CCCCN)NC(=O)c2cc(NC(=O)C(CCCCN)NC(=O)c3cc(NC(=O)C(CCCCN)NC(=O)c4cc(NC(=O)C(CCCCN)NC(=N)N)ccc4OC)ccc3OC)ccc2OC)cc1C(N)=O (stereo not drawn) [Compound 29]	–	0.78 µg/mL	8.33 µg/mL
COc1ccc(NC(=O)[C@@H](CCCCN)NC(=O)c2cc(NC(=O)[C@@H](CCCNC(=N)N)NC(=O)c3cc(NC(=O)[C@@H](CCCCN)NC(=O)c4cc(NC(=O)[C@H](N)CCCCN)ccc4OC)ccc3OC)ccc2OC)cc1C(N)=O [Compound 32]	–	30.00 µg/mL	inactive
COc1ccc(NC(=O)[C@@H](CCCNC(N)=O)NC(=O)c2cc(NC(=O)[C@@H](CCCNC(N)=O)NC(=O)c3cc(NC(=O)[C@@H](CCCNC(N)=O)NC(=O)c4cc(NC(=O)[C@H](N)CCCNC(N)=O)ccc4OC)ccc3OC)ccc2OC)cc1C(N)=O [Compound 33]	–	4.30 µg/mL	inactive
COc1ccc(NC(=O)[C@@H](CCCCN)NC(=O)c2c(OC)ccc(NC(=O)[C@@H](CCCCN)NC(=O)c3c(OC)ccc(NC(=O)[C@@H](CCCCN)NC(=O)c4c(OC)ccc(NC(=O)[C@H](N)CCCCN)c4OC)c3OC)c2OC)c(OC)c1C(N)=O [Compound 36]	–	45.00 µg/mL	inactive
COc1ccc(NC(=O)[C@@H](CCCCN)NC(=O)c2cc(NC(=O)[C@H](CCCCN)NC(=O)c3cc(NC(=O)[C@@H](CCCCN)NC(=O)c4cc(NC(=O)[C@@H](N)CCCCN)ccc4OC)ccc3OC)ccc2OC)cc1C(N)=O [Compound 37]	–	45.00 µg/mL	inactive
COc1ccc(NC(=O)[C@@H](CCCNC(=N)N)NC(=O)c2cc(NC(=O)[C@@H](CCCNC(=N)N)NC(=O)c3cc(NC(=O)[C@@H](CCCNC(=N)N)NC(=O)c4cc(NC(=O)[C@H](N)CCCNC(=N)N)ccc4OC)ccc3OC)ccc2OC)cc1C(=O)NCCN [Compound 51]	–	0.15 µg/mL	4.26 µg/mL
COc1ccc(NC(=O)[C@@H](CCCNC(=N)N)NC(=O)c2cc(NC(=O)[C@@H](CCCNC(=N)N)NC(=O)c3cc(NC(=O)[C@@H](CCCNC(=N)N)NC(=O)c4cc(NC(=O)[C@@H](C)N)ccc4OC)ccc3OC)ccc2OC)cc1C(=O)NCCN [Compound 54]	–	0.22 µg/mL	5.92 µg/mL
COc1ccc(NC(=O)[C@@H](CCCNC(=N)N)NC(=O)c2cc(NC(=O)[C@@H](CCCNC(=N)N)NC(=O)c3cc(NC(=O)[C@@H](CCCNC(=N)N)NC(=O)c4cc(NC(=O)[C@@H](C)N)ccc4OC)ccc3OC)ccc2OC)cc1C(=O)NCCCCCN [Compound 55]	–	0.18 µg/mL	4.16 µg/mL
COc1ccc(NC(=O)[C@@H](CCCNC(=N)N)NC(=O)c2cc(NC(=O)[C@@H](CCCNC(=N)N)NC(=O)c3cc(NC(=O)[C@@H](CCCNC(=N)N)NC(=O)c4cc(NC(=O)[C@@H](C)NC(C)=O)ccc4OC)ccc3OC)ccc2OC)cc1C(=O)NCCN [Compound 56]	–	0.43 µg/mL	5.24 µg/mL
COc1ccc(NC(=O)[C@@H](CCCNC(=N)N)NC(=O)c2cc(NC(=O)[C@@H](CCCNC(=N)N)NC(=O)c3cc(NC(=O)[C@@H](CCCNC(=N)N)NC(=O)c4cc(NC(=O)[C@@H](C)NC(=O)CCCCNC(=N)N)ccc4OC)ccc3OC)ccc2OC)cc1C(=O)NCCN [Compound 57]	–	0.17 µg/mL	3.25 µg/mL
COc1ccc(NC(=O)[C@@H](CCCNC(=N)N)NC(=O)c2cc(NC(=O)[C@@H](CCCNC(=N)N)NC(=O)c3cc(NC(=O)[C@@H](CCCNC(=N)N)NC(=O)c4cc(NC(=O)[C@@H](C)NC(=O)CCCCN)ccc4OC)ccc3OC)ccc2OC)cc1C(=O)NCCN [Compound 58]	–	0.36 µg/mL	3.94 µg/mL
COc1ccc(NC(=O)[C@@H](CCCNC(=N)N)NC(=O)c2cc(NC(=O)[C@@H](CCCNC(=N)N)NC(=O)c3cc(NC(=O)[C@@H](CCCNC(=N)N)NC(=O)c4cc(NC(=O)[C@@H](C)NC(=O)CCN)ccc4OC)ccc3OC)ccc2OC)cc1C(=O)NCCN [Compound 59]	–	0.13 µg/mL	4.53 µg/mL
COc1ccc(NC(=O)[C@@H](CCCNC(=N)N)NC(=O)c2cc(NC(=O)[C@@H](CCCNC(=N)N)NC(=O)c3cc(NC(=O)[C@@H](CCCNC(=N)N)NC(=O)c4cc(NC(=O)[C@@H](C)NC(C)=O)ccc4OC)ccc3OC)ccc2OC)cc1C(=O)NCCCCCN [Compound 60]	–	0.21 µg/mL	2.66 µg/mL
COc1ccc(NC(=O)[C@@H](CCCNC(=N)N)NC(=O)c2cc(NC(=O)[C@@H](CCCNC(=N)N)NC(=O)c3cc(NC(=O)[C@@H](CCCNC(=N)N)NC(=O)c4cc(NC(=O)[C@@H](C)NC(=O)CCCCNC(=N)N)ccc4OC)ccc3OC)ccc2OC)cc1C(=O)NCCCCCN [Compound 61]	–	0.11 µg/mL	2.99 µg/mL
COc1ccc(NC(=O)[C@@H](CCCNC(=N)N)NC(=O)c2cc(NC(=O)[C@@H](CCCNC(=N)N)NC(=O)c3cc(NC(=O)[C@@H](CCCNC(=N)N)NC(=O)c4cc(NC(=O)[C@@H](C)NC(=O)CCCCN)ccc4OC)ccc3OC)ccc2OC)cc1C(=O)NCCCCCN [Compound 62]	–	0.10 µg/mL	3.99 µg/mL
COc1ccc(NC(=O)[C@@H](CCCNC(=N)N)NC(=O)c2cc(NC(=O)[C@@H](CCCNC(=N)N)NC(=O)c3cc(NC(=O)[C@@H](CCCNC(=N)N)NC(=O)c4cc(NC(=O)[C@@H](C)NC(=O)CCN)ccc4OC)ccc3OC)ccc2OC)cc1C(=O)NCCCCCN [Compound 63]	–	0.10 µg/mL	3.29 µg/mL
N=C(N)NCCC[C@@H](N)C(=O)Nc1cccc(C(=O)N[C@H](CCCNC(=N)N)C(=O)Nc2cccc(C(=O)N[C@H](CCCNC(=N)N)C(=O)Nc3cccc(C(=O)N[C@H](CCCNC(=N)N)C(=O)Nc4cccc(C(N)=O)n4)n3)n2)n1 [Compound 65]	4.48 µg/mL	16.29 µg/mL	–
COc1ccc(NC(=O)[C@@H](CCCNC(=N)N)NC(=O)c2cc(NC(=O)[C@@H](CCCNC(=N)N)NC(=O)c3cc(NC(=O)[C@@H](CCCNC(=N)N)NC(=O)c4cc(NC(=O)[C@@H](CCCNC(=N)N)NC(=O)CCCCCCCCC(=O)N[C@H](CCCNC(=N)N)C(=O)Nc5ccc(OC)c(C(=O)N[C@H](CCCNC(=N)N)C(=O)Nc6ccc(OC)c(C(=O)N[C@H](CCCNC(=N)N)C(=O)Nc7ccc(OC)c(C(=O)N[C@H](CCCNC(=N)N)C(=O)Nc8ccc(OC)c(C(N)=O)c8)c7)c6)c5)ccc4OC)ccc3OC)ccc2OC)cc1C(N)=O [Compound 66]	2.53 µg/mL	–	–
COc1ccc(NC(=O)[C@@H](CCCNC(=N)N)NC(=O)c2cc(NC(=O)[C@@H](CCCNC(=N)N)NC(=O)c3cc(NC(=O)[C@@H](CCCNC(=N)N)NC(=O)c4cc(NC(=O)[C@H](N)CCCNC(N)=O)ccc4OC)ccc3OC)ccc2OC)cc1C(N)=O [Compound 82]	–	0.07 µg/mL	0.77 µg/mL
COc1ccc(NC(=O)[C@@H](CCCNC(=N)N)NC(=O)c2cc(NC(=O)[C@@H](CCCNC(=N)N)NC(=O)c3cc(NC(=O)[C@@H](Cc4c[nH]c5ccccc45)NC(=O)c4cc(NC(=O)[C@H](N)CCCNC(=N)N)ccc4OC)ccc3OC)ccc2OC)cc1C(N)=O [Compound 85]	–	0.36 µg/mL	1.93 µg/mL
COc1cc(OC)c(C(=O)N[C@H]2CC[C@H](NC(=O)c3cc(C(=O)NCCN(C)C)c(OCCCCCN)cc3OCCCCCN)CC2)cc1C(=O)NCCN(C)C [Compound 86]	inactive	–	>90 µg/mL
COc1ccc(NC(=O)[C@H](CCCCN)NC(=O)c2cc(NC(=O)[C@H](CCCCN)NC(=O)c3cc(OC(=O)[C@@H](N)CCCCN)ccc3OC)ccc2OC)cc1C(=O)N[C@@H](CCCCN)C(=O)Nc1ccc(OCC(=O)O)c(C(N)=O)c1 [Compound 116]	3.10 µg/mL	–	–
COc1ccc(NC(=O)[C@H](CCCCN)NC(=O)c2cc(NC(=O)[C@H](CCCCN)NC(=O)c3cc(NC(=O)[C@H](CCCCN)NC(=O)c4cc(NC(=O)[C@@H](N)CCCCN)ccc4OC)ccc3OCC(=O)O)ccc2OC)cc1C(N)=O [Compound 118]	3.14 µg/mL	–	–
